According to article PMC7429951 (Journal of Medicinal Chemistry, 2020):

How the values were obtained:
[1] = biological target: ColQ1 (Bacillus cereus, UniProt B9J3S4); test: Ex vivo pig-skin model, hydroxyproline quantification; parameters: species or system B. cereus; conditions: pig-skin explants, 300 nM ColQ1, defined concentrations of compound, vs control
Source text: We established an ex vivo model based on pig skin to address the impact of our inhibitors on living mammalian tissue and on the contained collagen as the natural substrate of collagenase. We challenged the skin, prepared from the ear of freshly slaughtered pigs, with pure ColQ1 from B. cereus to degrade collagen. We assessed the activity of ColQ1 by quantifying the formation of hydroxyproline as an indicator for collagen turnover (Figure 4). Optimization of the assay conditions for the model consisted of examining different buffer conditions and different protein concentrations (Figures S1 and S2). To evaluate the potential effect of 25 on collagen turnover, we incubated the skin with ColQ1 in the absence and presence of defined concentrations of this compound. […] The good performance of our inhibitors in this model is a sound starting point for their subsequent testing under in vivo conditions. We expect that our inhibitors will accelerate the in vivo healing process, by preventing the distribution of infection. […]
Skin explants were obtained from freshly slaughtered pig ears, which were supplied by a local slaughterhouse. […] Absorbance was measured using a PHERAstar plate reader (BMG Labtech). The absorbance values were converted into the hydroxyproline concentration (μg/mL) using the calibration curve of hydroxyproline as a reference (Figure S3).

[2] = biological target: T1, TACE (ADAM-17) (Homo sapiens, UniProt P78536); test: TACE inhibitor screening kit; format: biochemical
T1 construct: purchased Sigma-Aldrich (Saint Louis, MO)
Source text: (§1) Previously, we described N-aryl mercaptoacetamides with high selectivity for the bacterial over a broad range of human MMPs.[29],[30] MMPs are calcium-dependent zinc metalloproteases that play a pivotal role in numerous biochemical processes in humans.[39],[40] Based on the depth of their S1′ binding pocket, MMPs can be divided into three classes: deep (e.g., MMP-3 and -14), intermediate (e.g., MMP-2 and -8), and shallow (e.g., MMP-1 and -7). With the aim to explore the interactions of our inhibitors with all three pocket types, which could help us to assess potential effects on other not-tested representatives, we chose a panel of six MMPs, comprising two members of each class. In addition, HDAC-3, HDAC-8, and TACE (ADAM-17)—enzymes involved in gene expression and the processing of TNF-α,[41],[42] respectively—were selected as important additional human off-targets.

[3] = biological target: MMP-14 (Homo sapiens, UniProt P50281); test: MMP-14 off-target inhibition; format: biochemical
Source text: as §1

[4] = biological target: T2, collagenase unit of ColQ1 (ColQ1-CU) (Bacillus cereus, UniProt B9J3S4); test: biochemical; parameters: species or system B. cereus strain Q1; conditions: read-out: ColQ1-CU % inhibition @ 100 μM
T2 construct: the collagenase unit of ColQ1 (ColQ1-CU) from B. cereus strain Q1

[5] = in vitro; conditions: human, HepG2 cells (hepatocellular carcinoma)
[6] = in vitro; conditions: human, HEK293 cells (embryonal kidney)
[7] = tested on: C. histolyticum strain DSM 1126; test: Bacterial growth inhibition assay (MIC) C. histolyticum; format: cell-based, Clostridium histolyticum; conditions: strain DSM 1126, BHI medium, 48 h anaerobic
[8] = biological target: collagenase unit of ColG (ColG-CU) (Hathewaya histolytica, UniProt Q9X721); test: biochemical; parameters: species or system C. histolyticum; conditions: read-out: ColG-CU % inhibition @ 100 μM
Sequence of collagenase unit of ColG (ColG-CU) (Q9X721 111-786): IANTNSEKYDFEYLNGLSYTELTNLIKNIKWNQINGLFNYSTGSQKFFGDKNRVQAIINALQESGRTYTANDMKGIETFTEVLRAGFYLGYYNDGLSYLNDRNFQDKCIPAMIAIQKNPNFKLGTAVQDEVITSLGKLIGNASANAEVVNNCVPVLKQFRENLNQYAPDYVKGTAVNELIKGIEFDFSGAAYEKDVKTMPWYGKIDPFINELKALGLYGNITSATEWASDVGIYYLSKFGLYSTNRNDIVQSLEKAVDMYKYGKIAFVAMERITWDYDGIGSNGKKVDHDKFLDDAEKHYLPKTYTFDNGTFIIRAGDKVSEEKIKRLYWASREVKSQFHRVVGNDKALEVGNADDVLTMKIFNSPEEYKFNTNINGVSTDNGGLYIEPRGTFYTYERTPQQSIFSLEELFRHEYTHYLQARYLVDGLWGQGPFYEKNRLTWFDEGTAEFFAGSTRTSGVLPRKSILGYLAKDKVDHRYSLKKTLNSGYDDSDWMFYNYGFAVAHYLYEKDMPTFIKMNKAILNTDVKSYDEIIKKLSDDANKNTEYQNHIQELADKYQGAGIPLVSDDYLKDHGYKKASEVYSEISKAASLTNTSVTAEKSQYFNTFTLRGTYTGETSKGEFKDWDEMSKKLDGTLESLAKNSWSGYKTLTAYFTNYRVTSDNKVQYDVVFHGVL

T2 sequence (B9J3S4 94-765 limits assumed): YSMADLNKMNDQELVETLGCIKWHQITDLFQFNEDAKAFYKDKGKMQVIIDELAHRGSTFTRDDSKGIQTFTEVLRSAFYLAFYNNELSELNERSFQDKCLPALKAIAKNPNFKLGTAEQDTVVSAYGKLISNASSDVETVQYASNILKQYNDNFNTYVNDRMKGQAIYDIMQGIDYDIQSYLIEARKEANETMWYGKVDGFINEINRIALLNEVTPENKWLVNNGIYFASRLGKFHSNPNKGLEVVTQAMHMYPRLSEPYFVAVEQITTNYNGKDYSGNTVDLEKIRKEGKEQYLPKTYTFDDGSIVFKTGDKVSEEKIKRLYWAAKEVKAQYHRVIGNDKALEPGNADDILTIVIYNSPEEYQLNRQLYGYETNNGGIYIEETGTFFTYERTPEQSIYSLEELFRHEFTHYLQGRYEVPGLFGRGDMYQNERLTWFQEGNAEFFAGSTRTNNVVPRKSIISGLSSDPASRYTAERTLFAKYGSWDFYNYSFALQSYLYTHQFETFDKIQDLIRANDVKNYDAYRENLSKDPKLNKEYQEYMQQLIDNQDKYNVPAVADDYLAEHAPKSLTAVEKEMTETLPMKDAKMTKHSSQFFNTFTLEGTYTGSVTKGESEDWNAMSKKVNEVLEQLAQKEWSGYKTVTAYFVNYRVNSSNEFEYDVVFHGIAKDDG
T1 sequence (P78536 215-824): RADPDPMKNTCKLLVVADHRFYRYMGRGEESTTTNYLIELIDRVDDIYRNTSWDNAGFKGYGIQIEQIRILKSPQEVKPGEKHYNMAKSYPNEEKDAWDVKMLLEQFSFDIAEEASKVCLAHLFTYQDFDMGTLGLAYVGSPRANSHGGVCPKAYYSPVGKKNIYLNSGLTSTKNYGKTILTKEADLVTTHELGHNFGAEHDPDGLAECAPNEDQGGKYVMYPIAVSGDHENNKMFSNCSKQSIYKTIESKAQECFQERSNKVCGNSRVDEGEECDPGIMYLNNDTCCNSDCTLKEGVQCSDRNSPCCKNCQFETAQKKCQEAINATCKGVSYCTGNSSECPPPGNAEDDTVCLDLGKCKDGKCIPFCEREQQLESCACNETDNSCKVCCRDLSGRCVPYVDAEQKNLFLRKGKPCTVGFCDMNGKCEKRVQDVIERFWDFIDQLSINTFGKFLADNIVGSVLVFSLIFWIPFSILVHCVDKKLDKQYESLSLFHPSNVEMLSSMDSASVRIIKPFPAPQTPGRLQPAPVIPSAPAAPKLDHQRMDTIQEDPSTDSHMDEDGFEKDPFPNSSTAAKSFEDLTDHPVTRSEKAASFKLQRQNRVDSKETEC
Sequence of ColQ1 (B9J3S4 94-965): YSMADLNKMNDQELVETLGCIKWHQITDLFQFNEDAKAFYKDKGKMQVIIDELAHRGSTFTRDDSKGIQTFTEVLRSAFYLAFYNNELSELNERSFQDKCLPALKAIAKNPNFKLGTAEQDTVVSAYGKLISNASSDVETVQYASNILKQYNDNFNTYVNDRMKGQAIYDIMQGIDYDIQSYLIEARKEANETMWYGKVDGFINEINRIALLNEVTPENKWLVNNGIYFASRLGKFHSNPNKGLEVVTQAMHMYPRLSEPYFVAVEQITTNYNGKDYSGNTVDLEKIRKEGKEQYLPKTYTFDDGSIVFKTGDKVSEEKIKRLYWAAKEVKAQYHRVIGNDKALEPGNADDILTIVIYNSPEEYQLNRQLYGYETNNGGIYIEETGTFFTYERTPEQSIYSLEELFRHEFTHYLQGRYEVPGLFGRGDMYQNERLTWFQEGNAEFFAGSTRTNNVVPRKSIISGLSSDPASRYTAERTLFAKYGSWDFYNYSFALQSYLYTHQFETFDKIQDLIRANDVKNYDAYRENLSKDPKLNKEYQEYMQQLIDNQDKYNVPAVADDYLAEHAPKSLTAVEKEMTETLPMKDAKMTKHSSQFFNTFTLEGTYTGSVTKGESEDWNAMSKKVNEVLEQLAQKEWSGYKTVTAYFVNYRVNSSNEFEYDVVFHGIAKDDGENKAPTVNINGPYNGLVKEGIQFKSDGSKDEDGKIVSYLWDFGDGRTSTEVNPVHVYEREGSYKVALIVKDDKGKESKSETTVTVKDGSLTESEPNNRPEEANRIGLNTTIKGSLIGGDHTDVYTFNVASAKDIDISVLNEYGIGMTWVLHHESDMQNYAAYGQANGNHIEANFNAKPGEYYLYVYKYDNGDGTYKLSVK

CC(=O)c1ccc(N2C(=O)CC(S)C2=O)cc1 (stereo not shown) [Compound 25, 1-(4-Acetylphenyl)-3-mercaptopyrrolidine-2,5-dione]
hydroxyproline released (collagenolytic activity of ColQ1) [1]: significantly reduced amount of hydroxyproline released compared to control
IC50 [2]: 3.4 ± 1.2 µM
inhibition at 50 µM ([3]; 50 µM compound, read-out: MMP-14 % inh @50µM): < 10%
inhibition at 100 µM ([3]; read-out: MMP-14 % inhibition @ 100 μM, 100 μM compound): 84 ± 8%
inhibition at 100 µM [4]: 99 ± 2%
IC50 [5]: > 100 µM
IC50 [6]: > 100 µM
MIC ([7]; Hathewaya histolytica, DSM1126): > 100 µM
MIC [7]: >100 µM
inhibition at 100 µM [8]: 100 ± 2%
